Tests used:
bovine rod opsin = target: T1, bovine rod opsin (Bos taurus, UniProt P02699); experiment: Gt activation assay; format: biochemical
T1 construct: Constitutive activity of bovine opsin in disc membranes; from tissue; host or cells: bovine ROS membranes (opsin membranes and Gt both from bovine ROS)
Protocol: Gt was extracted and purified from frozen bovine ROS membranes as described in Preparation of Opsin Membranes. The intrinsic increase in the fluorescence from Gtα was measured with a L55 luminescence spectrophotometer (PerkinElmer Life Sciences) using an excitation and emission wavelengths of 300 and 345 nm, respectively. […] DMSO-treated opsin membranes were used to obtain a baseline for the basal activity of opsin. The molar ratio of opsin to Gt was 1:10, with opsin at a concentration of 100 nM and Gt at 1000 nM. […] This step was followed by the addition of 300 μM GTPγS (Sigma-Aldrich) to determine the GTPγS-induced complex dissociation and corresponding fluorescence changes. Gt activation rates were determined and plotted for the first 100 s of the Gt activation assay.

bovine opsin = target: T2, bovine opsin (Bos taurus, UniProt P02699); experiment: Isorhodopsin pigment regeneration of opsin in ROS disc membranes (absorption spectroscopy); format: biochemical; conditions: for competition with 9-cis-retinal for isorhodopsin regeneration (absorption at 495 nm): with 5 μM 9-cis-retinal, simultaneously or sequentially
T2 construct: ROS membranes were isolated from bovine retinas under dim red light; from tissue; host or cells: bovine retina rod outer segment (ROS) membranes, bleached with hydroxylamine
Protocol: ROS membranes were isolated from bovine retinas under dim red light. To remove membrane associated proteins, ROS membranes were washed with a hypotonic buffer composed of 5 mM bis-tris propane (BTP) and 1 mM EDTA, pH 7.5, followed by gentle homogenization with subsequent centrifugation at 25,000 g for 30 min. This procedure was repeated four times. The final membrane pellet was suspended in 10 mM sodium phosphate buffer, pH 7.0, and 50 mM hydroxylamine to a 3 mg mL^−1 concentration of rhodopsin, placed on ice and illuminated with a 150 Watt bulb for 30 min. Membranes were pelleted by centrifugation at 16,000 g for 5 min and then washed four times with 10 mM sodium phosphate buffer, pH 7.0, and 2% bovine serum albumin followed by 4 washes with 10 mM sodium phosphate buffer, pH 7.0, and 2 washes with 20 mM BTP, pH 7.5, and 100 mM NaCl. The concentration of opsin was measured with a UV-visible spectrophotometer and quantified using the absorption coefficient ε280 nm=81,200 M^−1 cm^−1.
ROS membranes containing opsin were suspended in buffer composed of 20 mM BTP, pH 7.5, and 100 mM NaCl at a final concentration of 2.5 μM. […] Membranes then were solubilized with 20 mM DDM for 10 min at RT and UV-visible spectra of these samples were measured. To follow the kinetics of isorhodopsin regeneration, opsin membranes were treated with 0, 20 or 60 μM YC-001 for 15 min at RT. […] UV-visible spectra of the samples were measured every 2 min until 2 h of reaction time at RT. Each condition was repeated three times. The time course of isorhodopsin regeneration was fitted by a second order exponential decay and apparent half-lives were obtained at the time when reaction reached half of the end-point product.
Alternatively, opsin incubated with the above ligands was purified by 1D4-immunoaffinity chromatography. […] After washing, opsin samples were eluted by addition of 1D4 peptide ([…]) (SEQ ID NO: 1) to the above buffer and their spectra were measured with a UV-visible spectrophotometer.

C57BL/6 mice [1] = experiment: Scotopic ERG recovery after bleaching; format: in vivo, mouse; conditions: 200 mg kg−1 i.p., compared to DMSO
Protocol: C57BL/6 mice at 2 months of age were placed in the dark overnight. Mice then were divided into a YC-001-treated group, a DMSO-treated group, and an unbleached group. Each group contained 3 mice (2 females and 1 male). Mice were given a single dose of YC-001 at 200 mg kg^−1 by i.p. injection. The DMSO group was treated with an equivalent volume of DMSO compared to the YC-001-treated group. One h after YC-001 or DMSO administration, mouse eyes were treated with 1% tropicamide eye drops for pupil dilation, exposed to 2,000 lux of illumination for 5 min and returned to the dark. Mice were anesthetized after a bleach for scotopic ERG recordings. Briefly, every 5 min a single-flash scotopic ERG at 1.6 cd·s·m^−2 was recorded until 1 h after a bleach. A-wave amplitudes of each ERG recording were measured, averaged from three animals, and plotted as a function of time and fitted to a linear function using Origin software version 8.1.

C57BL/6 mice [2] = experiment: Bw measurements, long-term toxicity by daily i.p. injections; format: in vivo; conditions: 100 or 200 mg kg−1 bw daily i.p. Day 14 to 38, vs DMSO
Protocol: To estimate the long-term toxicity of YC-001 in mice, we administered YC-001 to C57BL/6 mice by daily i.p. injections from Day 14 to 38 after birth with one of two doses, either 100 mg kg^−1 or 200 mg kg^−1 bw. Equivalent volumes of DMSO were injected into control groups. Bws of treated mice were measured daily. Each dosage group contained 3 mice including males and females.

rod opsin = target: T3, rod opsin (Mus musculus, UniProt P15409); experiment: cAMP quantification assay in NIH3T3-(WT-opsin/GFP) cells; format: cell-based
T3 construct: expressed in transfected cells
Excerpt: Three NIH3T3 stable cell lines, NIH3T3-(WT-opsin/GFP), NIH3T3-(P23H-opsin/GFP), and NIH3T3-(GFP) were previously generated which stably express mouse WT opsin and GFP; P23H opsin and GFP; and only GFP, respectively. GFP is expressed separately from opsin in these cell lines. NIH3T3 cells were from ATCC. DNA constructs for generating these stable cell lines were confirmed by Sanger sequencing. Expression of GFP was confirmed by green fluorescence imaging, and expression of P23H and WT opsin were confirmed by immunoblots.
NIH3T3-(Opsin/GFP) and NIH3T3-(GFP) were plated in two 96-well plates at a density of 50,000 cells per well in 100 μl of DMEM medium containing 10% FBS and antibiotics. After 24 h, cells were washed with Krebs Ringer bicarbonate buffer containing glucose (KRBG), and incubated with KRBG buffer containing 100 μM cAMP specific phosphodiesterase inhibitor, Ro 20-1724 (Tocris, UK) at RT for 10 min. […] While one plate then was wrapped with aluminum foil, the second plate was exposed to regular room light. Both plates were kept in a cell culture incubator for 15 min at 37° C. in 5% CO2. Levels of accumulated cAMP were detected with the Catchpoint cAMP fluorescent assay kit (Molecular Devices, Sunnyvale, CA USA) and the fluorescence with excitation/emission at 530/590 nm was read with a Flexstation3 plate reader (Molecular Devices) as described in the manufacturer's protocol.

T3 sequence (P15409 whole entry): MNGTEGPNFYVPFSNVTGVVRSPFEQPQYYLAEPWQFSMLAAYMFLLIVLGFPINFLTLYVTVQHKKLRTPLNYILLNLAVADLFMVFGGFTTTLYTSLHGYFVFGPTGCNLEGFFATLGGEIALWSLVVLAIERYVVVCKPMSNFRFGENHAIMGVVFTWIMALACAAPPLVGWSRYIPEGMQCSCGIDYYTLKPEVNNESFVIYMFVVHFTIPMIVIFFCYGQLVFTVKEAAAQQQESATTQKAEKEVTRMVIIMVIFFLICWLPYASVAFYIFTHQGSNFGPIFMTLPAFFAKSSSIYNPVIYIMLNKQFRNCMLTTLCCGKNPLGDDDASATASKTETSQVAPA
T1 sequence (P02699 whole entry): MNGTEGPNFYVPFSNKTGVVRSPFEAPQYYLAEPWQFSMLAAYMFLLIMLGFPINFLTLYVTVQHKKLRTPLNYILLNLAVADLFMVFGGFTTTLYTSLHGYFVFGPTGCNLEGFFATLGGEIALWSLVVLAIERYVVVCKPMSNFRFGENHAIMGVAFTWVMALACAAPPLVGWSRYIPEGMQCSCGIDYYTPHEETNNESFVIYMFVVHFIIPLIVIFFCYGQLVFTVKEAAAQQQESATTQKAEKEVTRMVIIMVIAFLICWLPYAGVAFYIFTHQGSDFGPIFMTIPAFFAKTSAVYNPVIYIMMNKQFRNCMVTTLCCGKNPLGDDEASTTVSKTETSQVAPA
T2 sequence (P02699 whole entry): as above

SMILES | ln(kinitial), initial rate of Gt activation for opsin (bovine rod opsin; 40 μM compound, basal opsin activity) | ln(kinitial), rate of Gt activation of regenerated isorhodopsin upon illumination (bovine rod opsin; co-treated with 40 μM 9-cis-retinal and 40 μM YC-001) | total amount of regenerated isorhodopsin pigment at the end of the reaction (bovine opsin; FIG. 4d) | kinetics of isorhodopsin pigment regeneration (bovine opsin; YC-001 then 9-cis-retinal, FIG. 4d) | reversibility of interaction with opsin (bovine opsin; after opsin/isorhodopsin purification) | competition with 9-cis-retinal for isorhodopsin regeneration (absorption at 495 nm) (bovine opsin) | scotopic ERG a-wave recovery after bleach (C57BL/6 mice [1]) | behavioral or bw growth changes (C57BL/6 mice [2]) | cAMP levels, co-treated with 1 μM 9-cis-retinal under light (rod opsin; FIG. 5c) | EC50 (rod opsin; either in the dark or light, read-out: EC50 of dose-dependent increase in cAMP levels) [µM] | ln(kinitial), rate of Gt activation of regenerated isorhodopsin upon illumination (bovine rod opsin; 40 μM 9-cis-retinal alone) | cAMP level upon light exposure (rod opsin; NIH3T3-(WT-opsin/GFP) cells, light) | fold increase in EC50 of 9-cis-retinal dose-response curve (rod opsin; with 40 μM YC-001 co-treatment vs 9-cis-retinal alone) [fold]
O=C1OCC(c2ccc(Cl)s2)=C1c1cccs1 [YC-001] | −6.1 | −4.9 | didn't affect the total amount | slowed down the kinetics of pigment regeneration | reversible | less isorhodopsin was generated | did not inhibit rhodopsin regeneration | no obvious behavioral or bw growth changes | dose-dependent elevation in cAMP levels | 8.22 | – | – | –
O=C(CCCCCN1C(=O)c2cccc3cccc(c23)C1=O)NO [Scriptaid, reference compound] | – | – | – | – | – | does not compete with 9-cis-retinal | – | – | – | – | – | – | –
CC1=C(/C=C/C(C)=C\C=C\C(C)=C\C=O)C(C)(C)CCC1 [9-cis-retinal, reference compound] | – | – | – | – | – | – | – | – | – | – | −4.6 | significantly reduced cAMP level | 3
